Marks after values point to notes of the source that are not given here.
Experiments:
[1] = tested on: vascular inflammation in high-glucose and high-fat zebrafish; test: Regressive effect on vascular inflammation in high-glucose and high-fat zebrafish (Example 9); type: in vivo; conditions: 30 μg/mL in water
Procedure: Experimental method: 360 tails of 5 dpf macrophage fluorescent zebrafish were randomly selected and placed in beakers with 30 tails in each beaker, compound (1), compound (3), and compound (5) were given intravenously, and the positive control group was given atorvastatin calcium by dissolving it in water at a concentration of 30 μg/mL, while the normal control group (fish farming water-treated zebrafish) and the model control group were set up, and the volume of each beaker (experimental group) was 25 mL. Except for the normal control group, all other groups were given high-lipids and high-sucrose feed by dissolving it in water. Compound (1), compound (3) and compound (5) group were co-treated with high-lipids and high-sucrose feed for 30 h. The treatment was carried out up to 9 dpf, and 10 zebrafish were randomly selected from each experimental group to collect the intensity of the macrophage fluorescence within the tail vein and around the tail vein of the zebrafish under fluorescence microscope, and the results of the statistical analysis were used to evaluate the regressive effect of compound (1), compound (3), compound (5) on zebrafish vascular inflammation in the high sugar and high fat model.

[2] = tested on: vascular endothelial injury induced thrombosis model in zebrafish; test: Preventative effect on vascular endothelial injury induced thrombosis, ponatinib zebrafish model (Example 1); type: in vivo; conditions: 4.00 ng/tail injected
Procedure: Experimental method: 420 tails of 5 dpf wild type AB strain zebrafish were randomly selected and placed in a six-well plate, with 30 fish per well (experimental group). The fish were injected with compound (1), compound (2), compound (3), compound (4), compound (5), compound (6), compound (7), compound (8), compound (9), compound (10), and compound (11) (structural formula shown in Table 1) at a dose of 4.00 ng/tail, with positive control drug acetylsalicylic acid being administered by dissolving it in water at a concentration of 30.0 µg/mL. Normal control group (i.e. zebrafish treated with standard diluted water) and model control group were set up, with a capacity of 3 mL per well (experimental group). Except for normal control group, the remaining experimental groups were all given Punatinib by dissolving it in water to induce vascular endothelial injury induced thrombosis model in zebrafish. The zebrafish were stained with o-dianisidine after co-treatment with ponatinib and samples for a period of time under incubation conditions at 28° C.
After staining, 10 zebrafish in each group were randomly selected and photographed under the microscope, and the intensity of cardiac erythrocyte staining in zebrafish was analyzed using NIS-Elements D 3.20 advanced image-processing software, and the samples were evaluated for the preventative effect on vascular endothelial injury induced thrombosis by the statistical results of cardiac erythrocyte staining intensity.
The preventative effect on thrombosis is calculated as follows: […]
Statistical analysis was performed using SPSS software, and p<0.05 indicates significant differences

[3] = tested on: rats with focal cerebral ischemia (MCAO)/reperfusion; test: Therapeutic administration, cerebral ischemia-reperfusion injury MCAO/R in rats (Example 7); type: in vivo, rat; conditions: 6 mg/kg i.v. once 1 h after reperfusion
Procedure: Experimental method: SD rats were randomly divided into 11 groups, including pseudosurgery group, a model control group, positive control drug edaravone via intravenous injection (6 mg/kg, i.v.) group, positive control drug butylphthalide injection via intravenous injection (5 mg/kg, i.v.) group, compound (1) high-dose (24 mg/kg, i.v.), medium-dose (12 mg/kg, i.v.), low-dose (6 mg/kg, i.v.) via intravenous injection group, positive drug butylphthalide soft capsule via intragastric administration (60 mg/kg, i.g.) group, and compound via intragastric administration at (1) high-dose (60 mg/kg, i.g.), medium-dose (30 mg/kg, i.g.), low-dose (15 mg/kg, i.g.) group. A middle cerebral artery occlusion (MCAO) model for cerebral ischemia-reperfusion of male rats was prepared using the internal carotid suture-occluded method with an ischemic time of 90 min followed by reperfusion. Injection and oral administration for once were performed 1 h after reperfusion, and neurobehavioral scoring was performed on rats after 24 h to determine neurological function in rats; the cerebral infarction rate and cerebral water content of rats were determined by 2,3,5-triphenyltetrazolium chloride (TTC) staining.

CC(C)c1c(C(=O)Nc2ccccc2)c(-c2ccccc2)c(-c2ccc(F)cc2)n1CC[C@@H](O)C[C@@H](O)CC(=O)[O-].CC(C)c1c(C(=O)Nc2ccccc2)c(-c2ccccc2)c(-c2ccc(F)cc2)n1CC[C@@H](O)C[C@@H](O)CC(=O)[O-].[Ca+2] [Atorvastatin calcium, atorvastatin calcium, reference compound]
Anti-inflammatory effect (%) [1]: 42*** % | Fluorescence intensity of perivascular macrophage (pixels, Mean ± SE) ([1]; n = 10): 106352 ± 6663 pixels

O=S(=O)(O)CCCCOCC1OC2OC3C(COCCCCS(=O)(=O)O)OC(OC4C(COCCCCS(=O)(=O)O)OC(OC5C(COCCCCS(=O)(=O)O)OC(OC6C(COCCCCS(=O)(=O)O)OC(OC7C(COCCCCS(=O)(=O)O)OC(OC8C(COCCCCS(=O)(=O)O)OC(OC1C(O)C2O)C(O)C8O)C(O)C7O)C(O)C6O)C(O)C5O)C(O)C4O)C(O)C3O (centres unmarked) [Compound (11)]
Preventative effect on thrombosis (%) [2]: 79% | Cardiac erythrocyte staining intensity (pixels, mean ± SE) ([2]; n = 10): 4749 ± 12 pixels | Cardiac erythrocyte staining intensity (pixels, mean ± SE) ([2]; n = 10, listed as compound (11)): 4749 pixels

CC1=NN(c2ccccc2)C(=O)C1 [Edaravone, edaravone, reference compound]
Behavioral score [3]: 1.62 ± 0.51 | Cerebral water content (%) [3]: 79.81 ± 1.03 % | Cerebral infarction rate (%) ([3]; after 24 h, mean ± SD, n = 8): 10.23 ± 7.87 %
